From patent publication US20220125765A1, “PHARMACEUTICAL COMBINATIONS COMPRISING MEBENDAZOLE AND A STRONG OR MODERATE CYP1A2 INHIBITOR” (ZEPHAPHARM LTD, priority 2019, published 2022)
pIC50: −log10 of the molar value. Where two headings read alike, the source gives them in different places.

Legend:
P-gp = P-gp (Homo sapiens, UniProt P08183); experiment: in vitro; details: human
human P-gp transporter = human P-gp transporter (Homo sapiens, UniProt P08183); experiment: in vitro; details: Caco-2
[1] = target: T1, human OATP1B3 transporter (Homo sapiens, UniProt Q9NPD5); experiment: Uptake into OATP1B3 and empty vector transfected HEK293 cells; assay type: in vitro ADME; details: for Uptake rate Mean: 2 min; for Uptake ratio: OATP1B3 vs control
T1 construct: expressed in transfected cells; host or cells: HEK293 (transient transfection)
T1 sequence (Q9NPD5 1-702): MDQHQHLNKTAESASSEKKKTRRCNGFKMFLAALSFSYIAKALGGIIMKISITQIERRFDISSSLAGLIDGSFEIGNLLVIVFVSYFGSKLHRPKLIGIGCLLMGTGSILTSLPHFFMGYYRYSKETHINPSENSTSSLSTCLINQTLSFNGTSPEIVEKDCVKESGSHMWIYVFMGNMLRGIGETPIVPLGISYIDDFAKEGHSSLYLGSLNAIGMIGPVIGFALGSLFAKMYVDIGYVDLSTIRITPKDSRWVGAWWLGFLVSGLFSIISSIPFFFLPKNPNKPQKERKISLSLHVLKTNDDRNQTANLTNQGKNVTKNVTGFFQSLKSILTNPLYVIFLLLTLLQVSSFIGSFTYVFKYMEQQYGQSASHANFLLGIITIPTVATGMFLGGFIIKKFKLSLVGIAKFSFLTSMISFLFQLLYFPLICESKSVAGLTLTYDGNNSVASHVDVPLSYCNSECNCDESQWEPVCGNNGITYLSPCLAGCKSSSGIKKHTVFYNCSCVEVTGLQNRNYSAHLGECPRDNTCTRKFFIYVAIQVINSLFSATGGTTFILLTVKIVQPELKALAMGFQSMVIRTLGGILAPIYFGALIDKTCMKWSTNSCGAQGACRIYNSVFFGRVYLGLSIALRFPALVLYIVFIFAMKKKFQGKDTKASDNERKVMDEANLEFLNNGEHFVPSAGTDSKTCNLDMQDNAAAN
Procedure: Test compound (at 1 and 10 μM) was incubated with both SLC transporter-expressing HEK293 cells and control (empty vector) HEK293 cells for 2 min.

CYP2C19 = CYP2C19 (Homo sapiens, UniProt P33261); experiment: Cytochrome P450 reaction phenotyping, recombinant CYP2C19 (Bactosomes); details: for Compound Remaining (% of 0 min): CYP2C19, 5 μM
Sequence of CYP2C19 (P33261 whole entry, canonical isoform): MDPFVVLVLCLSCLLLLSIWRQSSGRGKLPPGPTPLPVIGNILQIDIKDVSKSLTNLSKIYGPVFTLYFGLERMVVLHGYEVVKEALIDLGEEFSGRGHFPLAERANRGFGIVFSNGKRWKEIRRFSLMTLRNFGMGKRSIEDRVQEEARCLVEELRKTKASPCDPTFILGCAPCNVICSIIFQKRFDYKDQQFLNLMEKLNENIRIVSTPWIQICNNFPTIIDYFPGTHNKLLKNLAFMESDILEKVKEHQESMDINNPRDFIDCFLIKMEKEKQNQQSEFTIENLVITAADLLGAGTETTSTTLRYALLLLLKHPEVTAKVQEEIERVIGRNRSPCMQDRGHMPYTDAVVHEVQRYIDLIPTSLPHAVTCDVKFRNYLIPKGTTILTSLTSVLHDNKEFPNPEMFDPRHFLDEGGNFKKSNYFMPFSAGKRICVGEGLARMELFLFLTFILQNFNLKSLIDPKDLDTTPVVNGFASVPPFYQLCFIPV
Procedure: Incubations were also performed using control Bactosomes™ (no P450 enzymes present) to reveal any non-enzymatic degradation. Control compounds known to be metabolised specifically by each P450 isoform were included. All incubations were performed singularly for each test compound.
Incubations were also performed using control Bactosomes™ (no P450 enzymes present) to reveal any non-enzymatic degradation. Control compounds known to be metabolised specifically by each P450 isoform were included. All incubations were performed singularly for each test compound. […] The reactions were stopped by transferring an aliquot of incubate to quench solvent at the appropriate time points, in a 1:3 ratio. The termination plates were centrifuged at 3,000 rpm for 20 min at 4° C. to precipitate the protein.

[2] = system: 8 neuroblastoma and 13 sarcoma derived cell lines; experiment: 2D monolayer CellTiter-Blue viability, panel geometric mean (Example 9); assay type: cell-based; details: 21 cell lines, 72 hours
Procedure: (§1) Seventeen compounds, including mebendazole (Batch no. […] Efficacy of compounds was assessed using CellTiter-Blue® Cell Viability Assay. Anti-tumor activity is expressed as absolute and relative IC50 and IC70 values, calculated by non-linear regression analysis.

NBXF SK-N-BE(2) = experiment: 2D monolayer CellTiter-Blue viability, neuroblastoma SK-N-BE(2); assay type: cell-based; details: 72 h
Procedure: as §1

SXFS 1301 = experiment: 2D monolayer CellTiter-Blue viability, soft tissue sarcoma SXFS 1301; assay type: cell-based; details: 72 h
Procedure: as §1

SXFS SK-LMS-1 = experiment: 2D monolayer CellTiter-Blue viability, soft tissue sarcoma SK-LMS-1; assay type: cell-based; details: 72 h
Procedure: as §1

786-O = experiment: 2D monolayer CellTiter-Blue viability, renal cancer 786-O; assay type: cell-based; details: for pIC50: Homo sapiens, 786-0, 72 h
Procedure: Mebendazole was tested in vitro across a panel of 12 tumor cell lines of ovarian and renal cancer by using a 2D monolayer assay. […] OVXF 899L and RXF 486L are P-gp expressing, multidrug resistant cell lines.
Anti-tumor activity is expressed as absolute and relative IC50/70 values, calculated by 4-parameter non-linear curve fit.

Sequence of P-gp (P08183 whole entry): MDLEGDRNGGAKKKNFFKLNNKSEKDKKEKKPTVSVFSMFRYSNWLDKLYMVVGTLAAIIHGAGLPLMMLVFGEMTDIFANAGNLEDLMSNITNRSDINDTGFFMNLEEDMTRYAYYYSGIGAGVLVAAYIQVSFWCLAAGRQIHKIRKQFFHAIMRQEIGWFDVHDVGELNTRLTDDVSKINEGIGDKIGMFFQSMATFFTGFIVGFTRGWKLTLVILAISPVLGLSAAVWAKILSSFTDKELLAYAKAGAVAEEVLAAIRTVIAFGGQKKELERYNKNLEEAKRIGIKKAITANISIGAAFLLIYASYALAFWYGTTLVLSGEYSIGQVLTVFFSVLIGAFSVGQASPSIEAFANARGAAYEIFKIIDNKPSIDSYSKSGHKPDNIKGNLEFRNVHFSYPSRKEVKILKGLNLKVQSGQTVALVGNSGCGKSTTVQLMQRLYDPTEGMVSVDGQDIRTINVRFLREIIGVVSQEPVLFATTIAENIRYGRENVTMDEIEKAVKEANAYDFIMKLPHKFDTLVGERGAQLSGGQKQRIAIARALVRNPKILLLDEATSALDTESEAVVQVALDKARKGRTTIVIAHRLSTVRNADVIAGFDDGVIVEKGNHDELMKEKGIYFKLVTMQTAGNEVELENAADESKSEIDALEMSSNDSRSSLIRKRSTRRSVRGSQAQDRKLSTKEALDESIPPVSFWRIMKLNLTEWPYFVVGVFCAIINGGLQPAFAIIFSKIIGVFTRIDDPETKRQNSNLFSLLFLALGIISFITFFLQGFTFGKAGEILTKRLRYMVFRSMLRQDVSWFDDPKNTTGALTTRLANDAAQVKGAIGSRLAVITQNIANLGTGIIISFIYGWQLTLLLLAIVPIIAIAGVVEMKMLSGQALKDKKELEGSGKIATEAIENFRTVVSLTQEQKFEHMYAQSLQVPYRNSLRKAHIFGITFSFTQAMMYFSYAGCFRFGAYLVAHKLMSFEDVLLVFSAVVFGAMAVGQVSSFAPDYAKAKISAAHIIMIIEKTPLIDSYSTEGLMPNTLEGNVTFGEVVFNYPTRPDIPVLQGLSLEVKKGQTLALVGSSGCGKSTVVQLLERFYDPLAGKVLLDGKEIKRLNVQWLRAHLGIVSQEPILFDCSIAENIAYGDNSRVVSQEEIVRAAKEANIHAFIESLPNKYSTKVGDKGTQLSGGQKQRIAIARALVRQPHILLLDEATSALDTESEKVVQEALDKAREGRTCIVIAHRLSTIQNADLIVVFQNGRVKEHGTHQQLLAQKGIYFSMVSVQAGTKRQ
Sequence of human P-gp transporter (P08183 whole entry): as above

Compound: COC(=O)Nc1nc2ccc(C(=O)c3ccccc3)cc2[nH]1 [Mebendazole, methyl N-(6-benzoyl-1H-benzimidazol-2-yl)carbamate]
- efflux ratio at 120 min, 10 μM (P-gp; Caco-2): 1.17
- Papp A→B at 120 min, 10 μM (P-gp; Caco-2, Papp Mean): 254 nm/s
- Papp B→A at 120 min, 10 μM (P-gp; Caco-2, Papp Mean): 298 nm/s
- Papp A→B at 120 min, 10 μM (P-gp; Caco-2, Papp Rep 1): 224 nm/s
- Papp B→A at 120 min, 10 μM (P-gp; Caco-2, Papp Rep 1): 302 nm/s
- Papp A→B at 120 min, 10 μM (P-gp; Caco-2, Papp Rep 2): 285 nm/s
- Papp B→A at 120 min, 10 μM (P-gp; Caco-2, Papp Rep 2): 294 nm/s
- recovery at 120 min, 10 µM (P-gp; Caco-2, calculated mean % recovery values (range)): 55.7 to 75.1%
- passive permeability (human P-gp transporter): high passive permeability
- Uptake rate Mean ([1]; 1 μM, OATP1B3 HEK293 cells): 56.6 pmol/mg
- Uptake ratio ([1]; 1 μM): 1.1
- Uptake rate Mean ([1]; 1 μM, control (empty vector) HEK293 cells): 50.1 pmol/mg
- Uptake rate Mean ([1]; 10 μM, OATP1B3 HEK293 cells): 466 pmol/mg
- Uptake ratio ([1]; 10 μM): 1.1
- Uptake rate Mean ([1]; 10 μM, control (empty vector) HEK293 cells): 414 pmol/mg
- substrate of the human OATP1B3 transporter ([1]; 1 and 10 μM): not a substrate
- Compound Remaining (% of 0 min) (CYP2C19; 0 min): 100 % of 0 min
- Compound Remaining (% of 0 min) (CYP2C19; 5 min): 92.6 % of 0 min
- Compound Remaining (% of 0 min) (CYP2C19; 15 min): 82.1 % of 0 min
- Compound Remaining (% of 0 min) (CYP2C19; 30 min): 76.3 % of 0 min
- Compound Remaining (% of 0 min) (CYP2C19; 45 min): 70.5 % of 0 min
- half-life at 5 μM (CYP2C19; human, recombinant CYP2C19 (Bactosomes), pH 7.4): 1.55 h
- pIC50 ([2]; read-out: absolute geometric mean IC50): 6.54
- pIC50 ([2]; read-out: relative geometric mean IC50): 6.55
- Test/Control (%) at Drug Concentration (NBXF SK-N-BE(2); 1.0E+00 μM): 13%
- Test/Control (%) at Drug Concentration (NBXF SK-N-BE(2); 1.0E+01 μM): 3%
- Test/Control (%) at Drug Concentration (NBXF SK-N-BE(2); 1.0E+02 μM): −1%
- Test/Control (%) at Drug Concentration (NBXF SK-N-BE(2); 1.0E−01 μM): 55%
- Test/Control (%) at Drug Concentration (NBXF SK-N-BE(2); 1.0E−02 μM): 85%
- Test/Control (%) at Drug Concentration (NBXF SK-N-BE(2); 3.2E+00 μM): 6%
- Test/Control (%) at Drug Concentration (NBXF SK-N-BE(2); 3.2E+01 μM): 2%
- Test/Control (%) at Drug Concentration (NBXF SK-N-BE(2); 3.2E−01 μM): 23%
- Test/Control (%) at Drug Concentration (NBXF SK-N-BE(2); 3.2E−02 μM): 80%
- Test/Control (%) at Drug Concentration (NBXF SK-N-BE(2); 3.2E−03 μM): 87%
- Test/Control (%) at Drug Concentration (SXFS 1301; SXFS 1301, 1.0E+00 μM): 35%
- Test/Control (%) at Drug Concentration (SXFS 1301; SXFS 1301, 1.0E+01 μM): 38%
- Test/Control (%) at Drug Concentration (SXFS 1301; SXFS 1301, 1.0E+02 μM): 8%
- Test/Control (%) at Drug Concentration (SXFS 1301; SXFS 1301, 1.0E−01 μM): 84%
- Test/Control (%) at Drug Concentration (SXFS 1301; SXFS 1301, 1.0E−02 μM): 106%
- Test/Control (%) at Drug Concentration (SXFS 1301; SXFS 1301, 3.2E+00 μM): 33%
- Test/Control (%) at Drug Concentration (SXFS 1301; SXFS 1301, 3.2E+01 μM): 36%
- Test/Control (%) at Drug Concentration (SXFS 1301; SXFS 1301, 3.2E−01 μM): 55%
- Test/Control (%) at Drug Concentration (SXFS 1301; SXFS 1301, 3.2E−02 μM): 98%
- Test/Control (%) at Drug Concentration (SXFS 1301; SXFS 1301, 3.2E−03 μM): 101%
- Test/Control (%) at Drug Concentration (SXFS SK-LMS-1; SK-LMS-1, 1.0E+00 μM): 27%
- Test/Control (%) at Drug Concentration (SXFS SK-LMS-1; SK-LMS-1, 1.0E+01 μM): 9%
- Test/Control (%) at Drug Concentration (SXFS SK-LMS-1; SK-LMS-1, 1.0E+02 μM): 3%
- Test/Control (%) at Drug Concentration (SXFS SK-LMS-1; SK-LMS-1, 1.0E−01 μM): 80%
- Test/Control (%) at Drug Concentration (SXFS SK-LMS-1; SK-LMS-1, 1.0E−02 μM): 90%
- Test/Control (%) at Drug Concentration (SXFS SK-LMS-1; SK-LMS-1, 3.2E+00 μM): 16%
- Test/Control (%) at Drug Concentration (SXFS SK-LMS-1; SK-LMS-1, 3.2E+01 μM): 5%
- Test/Control (%) at Drug Concentration (SXFS SK-LMS-1; SK-LMS-1, 3.2E−01 μM): 45%
- Test/Control (%) at Drug Concentration (SXFS SK-LMS-1; SK-LMS-1, 3.2E−02 μM): 83%
- Test/Control (%) at Drug Concentration (SXFS SK-LMS-1; SK-LMS-1, 3.2E−03 μM): 101%
- Test/Control (%) at Drug Concentration (786-O; 1.0E+00 μM, 72 h): 20%
- Test/Control (%) at Drug Concentration (786-O; 1.0E−01 μM, 72 h): 95%
- Test/Control (%) at Drug Concentration (786-O; 1.0E−02 μM, 72 h): 87%
- Test/Control (%) at Drug Concentration (786-O; 1.0E−03 μM, 72 h): 98%
- Test/Control (%) at Drug Concentration (786-O; 1.0E−04 μM, 72 h): 107%
- Test/Control (%) at Drug Concentration (786-O; 3.2E+00 μM, 72 h): 9%
- Test/Control (%) at Drug Concentration (786-O; 3.2E−01 μM, 72 h): 69%
- Test/Control (%) at Drug Concentration (786-O; 3.2E−02 μM, 72 h): 88%
- Test/Control (%) at Drug Concentration (786-O; 3.2E−03 μM, 72 h): 97%
- Test/Control (%) at Drug Concentration (786-O; 3.2E−04 μM, 72 h): 87%
- Abs. IC70 (786-O; 72 h): 0.712 µM
- Rel. IC70 (786-O; 72 h): 0.640 µM
- Bot. (%) (786-O; 72 h, curve fit): 9%
- Top (%) (786-O; 72 h, curve fit): 94%
- pIC50 (786-O; read-out: Abs. IC50): 6.33
- pIC50 (786-O; read-out: Rel. IC50): 6.34
